Data reported in publication PMC7026418, “The kinase polypharmacology landscape of clinical PARP inhibitors” (Scientific Reports, 2020).
Like-named read-outs stand apart in the source and are kept apart here. Values belong to the compound of their own block, whether it stands above or below them.

Tests used:
Assay in all cases: biochemical
Set-up in all cases: DiscoveRx KINOMEscan active site-directed competition binding; percent of control kinase bound to immobilised ligand
ABL1-phosphorylated = molecular target: T1, ABL1-phosphorylated (Homo sapiens, UniProt P00519)
T1 construct: phosphorylated

CDK11 = molecular target: T2, CDK11 (Homo sapiens, UniProt Q9BWU1)
T2 construct: gene CDK19

GRK7 = molecular target: T3, GRK7 (Homo sapiens, UniProt Q8WTQ7)
T3 sequence (Q8WTQ7 1-553): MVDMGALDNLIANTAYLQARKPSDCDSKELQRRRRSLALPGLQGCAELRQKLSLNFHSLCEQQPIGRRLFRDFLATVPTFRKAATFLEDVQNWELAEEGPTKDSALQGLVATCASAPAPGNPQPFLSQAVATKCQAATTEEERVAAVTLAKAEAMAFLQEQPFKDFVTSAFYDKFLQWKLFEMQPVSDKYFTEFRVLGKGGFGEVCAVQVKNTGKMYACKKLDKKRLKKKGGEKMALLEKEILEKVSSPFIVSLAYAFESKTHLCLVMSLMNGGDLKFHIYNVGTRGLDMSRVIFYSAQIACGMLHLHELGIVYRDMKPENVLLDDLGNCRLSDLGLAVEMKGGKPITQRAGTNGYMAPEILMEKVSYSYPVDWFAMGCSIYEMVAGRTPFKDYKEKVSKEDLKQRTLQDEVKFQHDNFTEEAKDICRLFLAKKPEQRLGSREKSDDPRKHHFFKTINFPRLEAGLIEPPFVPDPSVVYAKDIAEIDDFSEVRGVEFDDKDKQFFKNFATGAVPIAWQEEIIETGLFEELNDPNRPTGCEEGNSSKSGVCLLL

HIPK1 = HIPK1 (Homo sapiens, UniProt Q86Z02)
MEK3 = molecular target: T4, MEK3 (Homo sapiens, UniProt P46734)
T4 construct: gene MAP2K3
T4 sequence (P46734 1-347): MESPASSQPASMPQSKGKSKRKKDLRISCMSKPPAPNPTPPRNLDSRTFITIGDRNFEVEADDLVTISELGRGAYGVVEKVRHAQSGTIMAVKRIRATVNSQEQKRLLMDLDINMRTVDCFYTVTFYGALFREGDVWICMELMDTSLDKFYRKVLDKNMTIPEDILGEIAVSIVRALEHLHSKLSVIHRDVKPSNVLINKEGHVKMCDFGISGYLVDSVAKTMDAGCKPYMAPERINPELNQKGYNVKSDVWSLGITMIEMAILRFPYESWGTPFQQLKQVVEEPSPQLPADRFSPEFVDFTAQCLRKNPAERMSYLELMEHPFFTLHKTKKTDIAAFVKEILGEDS

PLK3 = PLK3 (Homo sapiens, UniProt Q9H4B4)
TEC = molecular target: T5, TEC (Homo sapiens, UniProt P42680)
T5 sequence (P42680 1-631): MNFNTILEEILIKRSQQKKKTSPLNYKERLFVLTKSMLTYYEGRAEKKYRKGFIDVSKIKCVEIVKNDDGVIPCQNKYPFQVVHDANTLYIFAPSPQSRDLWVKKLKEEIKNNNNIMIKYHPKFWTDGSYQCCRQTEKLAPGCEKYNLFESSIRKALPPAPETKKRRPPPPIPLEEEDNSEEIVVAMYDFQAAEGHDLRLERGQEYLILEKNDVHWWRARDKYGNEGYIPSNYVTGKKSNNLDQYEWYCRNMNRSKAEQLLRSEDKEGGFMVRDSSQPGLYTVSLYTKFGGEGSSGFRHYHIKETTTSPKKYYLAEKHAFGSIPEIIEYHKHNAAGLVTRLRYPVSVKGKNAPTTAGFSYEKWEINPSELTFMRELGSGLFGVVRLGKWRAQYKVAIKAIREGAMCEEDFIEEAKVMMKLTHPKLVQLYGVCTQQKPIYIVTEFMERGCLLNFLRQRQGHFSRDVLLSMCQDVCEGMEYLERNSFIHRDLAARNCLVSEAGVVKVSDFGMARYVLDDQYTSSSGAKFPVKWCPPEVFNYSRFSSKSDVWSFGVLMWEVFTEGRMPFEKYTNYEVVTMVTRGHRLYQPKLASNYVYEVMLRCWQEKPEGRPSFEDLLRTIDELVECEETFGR

TIE2 = molecular target: T6, TIE2 (Homo sapiens, UniProt Q02763)
T6 construct: gene TEK

WEE2 = WEE2 (Homo sapiens, UniProt P0C1S8)
WNK3 = WNK3 (Homo sapiens, UniProt Q9BYP7)
YES = molecular target: T7, YES (Homo sapiens, UniProt P07947)
T7 construct: gene YES1

[1] = read-out: Niraparib (MK-4827) / %Ctrl @ 10000nM
[2] = read-out: Olaparib / %Ctrl @ 10000nM
[3] = read-out: Rucaparib / %Ctrl @ 10000nM, binding competition, % of control
[4] = read-out: Talazoparib (BMN 673) / %Ctrl @ 10000nM

T7 sequence (P07947 whole entry): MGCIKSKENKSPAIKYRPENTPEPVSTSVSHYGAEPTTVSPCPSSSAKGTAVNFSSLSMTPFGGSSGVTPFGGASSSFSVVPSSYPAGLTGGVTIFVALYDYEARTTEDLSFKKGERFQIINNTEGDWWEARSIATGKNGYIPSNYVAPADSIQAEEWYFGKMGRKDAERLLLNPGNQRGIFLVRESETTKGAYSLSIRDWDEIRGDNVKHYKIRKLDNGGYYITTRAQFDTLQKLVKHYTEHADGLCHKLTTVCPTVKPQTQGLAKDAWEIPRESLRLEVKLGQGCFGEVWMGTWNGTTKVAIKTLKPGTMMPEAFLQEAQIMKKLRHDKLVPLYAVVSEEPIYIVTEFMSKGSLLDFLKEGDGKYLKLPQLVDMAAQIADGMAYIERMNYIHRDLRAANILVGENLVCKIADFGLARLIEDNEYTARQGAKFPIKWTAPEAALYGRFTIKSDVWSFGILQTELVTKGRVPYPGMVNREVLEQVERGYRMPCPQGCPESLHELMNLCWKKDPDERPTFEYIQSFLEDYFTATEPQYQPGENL
T1 sequence (P00519 whole entry): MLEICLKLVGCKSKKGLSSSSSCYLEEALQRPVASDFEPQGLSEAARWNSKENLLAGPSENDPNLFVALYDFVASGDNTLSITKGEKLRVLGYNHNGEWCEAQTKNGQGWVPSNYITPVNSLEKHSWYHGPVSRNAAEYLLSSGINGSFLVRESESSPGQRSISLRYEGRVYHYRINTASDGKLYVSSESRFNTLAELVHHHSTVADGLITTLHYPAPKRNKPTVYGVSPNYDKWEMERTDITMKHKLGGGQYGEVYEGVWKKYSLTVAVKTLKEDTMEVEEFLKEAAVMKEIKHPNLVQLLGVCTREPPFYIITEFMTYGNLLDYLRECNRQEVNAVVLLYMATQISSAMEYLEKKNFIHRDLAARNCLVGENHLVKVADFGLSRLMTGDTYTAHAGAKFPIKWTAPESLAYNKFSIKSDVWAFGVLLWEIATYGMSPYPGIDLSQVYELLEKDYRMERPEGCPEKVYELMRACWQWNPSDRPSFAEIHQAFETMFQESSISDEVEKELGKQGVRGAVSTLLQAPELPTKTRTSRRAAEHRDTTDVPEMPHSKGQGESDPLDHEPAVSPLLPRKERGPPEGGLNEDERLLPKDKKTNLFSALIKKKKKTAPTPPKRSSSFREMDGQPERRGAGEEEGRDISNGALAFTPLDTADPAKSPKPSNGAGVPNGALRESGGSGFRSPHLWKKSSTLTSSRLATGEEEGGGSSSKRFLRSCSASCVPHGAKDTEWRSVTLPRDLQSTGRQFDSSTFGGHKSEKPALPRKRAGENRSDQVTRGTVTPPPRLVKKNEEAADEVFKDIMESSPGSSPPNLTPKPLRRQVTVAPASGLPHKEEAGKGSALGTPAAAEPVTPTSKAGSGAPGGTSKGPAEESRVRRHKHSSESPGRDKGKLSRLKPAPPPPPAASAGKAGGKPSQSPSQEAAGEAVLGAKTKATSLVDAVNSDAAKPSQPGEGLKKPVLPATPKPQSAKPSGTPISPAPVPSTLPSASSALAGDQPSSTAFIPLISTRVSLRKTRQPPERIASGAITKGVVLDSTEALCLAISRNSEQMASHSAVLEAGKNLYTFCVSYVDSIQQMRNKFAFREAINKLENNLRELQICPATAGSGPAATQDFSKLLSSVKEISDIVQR
T6 sequence (Q02763 whole entry): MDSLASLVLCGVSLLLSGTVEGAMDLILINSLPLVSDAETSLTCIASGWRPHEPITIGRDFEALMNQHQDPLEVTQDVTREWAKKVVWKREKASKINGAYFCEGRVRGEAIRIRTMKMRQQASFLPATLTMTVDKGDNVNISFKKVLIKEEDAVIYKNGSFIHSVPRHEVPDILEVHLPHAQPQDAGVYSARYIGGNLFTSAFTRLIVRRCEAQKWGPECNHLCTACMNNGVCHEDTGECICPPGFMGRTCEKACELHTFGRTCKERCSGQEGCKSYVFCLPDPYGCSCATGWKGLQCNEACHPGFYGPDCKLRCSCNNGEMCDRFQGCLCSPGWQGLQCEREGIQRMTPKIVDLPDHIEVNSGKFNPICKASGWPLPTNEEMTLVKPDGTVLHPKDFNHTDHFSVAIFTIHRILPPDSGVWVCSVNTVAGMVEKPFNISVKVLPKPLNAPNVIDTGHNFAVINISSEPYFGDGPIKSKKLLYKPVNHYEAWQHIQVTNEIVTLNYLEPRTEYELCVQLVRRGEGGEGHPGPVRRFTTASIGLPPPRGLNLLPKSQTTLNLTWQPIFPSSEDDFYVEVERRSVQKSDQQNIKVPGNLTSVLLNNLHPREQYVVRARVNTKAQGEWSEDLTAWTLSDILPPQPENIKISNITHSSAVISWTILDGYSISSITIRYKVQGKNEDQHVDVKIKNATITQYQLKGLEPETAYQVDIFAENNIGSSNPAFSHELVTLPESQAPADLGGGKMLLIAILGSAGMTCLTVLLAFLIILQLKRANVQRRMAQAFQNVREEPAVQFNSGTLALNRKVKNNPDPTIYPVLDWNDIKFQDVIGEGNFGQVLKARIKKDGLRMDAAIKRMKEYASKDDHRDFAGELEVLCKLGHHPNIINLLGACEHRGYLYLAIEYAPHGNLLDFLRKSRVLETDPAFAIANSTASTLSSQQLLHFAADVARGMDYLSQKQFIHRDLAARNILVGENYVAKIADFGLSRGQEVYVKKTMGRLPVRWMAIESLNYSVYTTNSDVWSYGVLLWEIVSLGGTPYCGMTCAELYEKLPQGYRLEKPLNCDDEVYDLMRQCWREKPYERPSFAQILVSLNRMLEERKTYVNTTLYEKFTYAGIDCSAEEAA
Sequence of WNK3 (Q9BYP7 whole entry): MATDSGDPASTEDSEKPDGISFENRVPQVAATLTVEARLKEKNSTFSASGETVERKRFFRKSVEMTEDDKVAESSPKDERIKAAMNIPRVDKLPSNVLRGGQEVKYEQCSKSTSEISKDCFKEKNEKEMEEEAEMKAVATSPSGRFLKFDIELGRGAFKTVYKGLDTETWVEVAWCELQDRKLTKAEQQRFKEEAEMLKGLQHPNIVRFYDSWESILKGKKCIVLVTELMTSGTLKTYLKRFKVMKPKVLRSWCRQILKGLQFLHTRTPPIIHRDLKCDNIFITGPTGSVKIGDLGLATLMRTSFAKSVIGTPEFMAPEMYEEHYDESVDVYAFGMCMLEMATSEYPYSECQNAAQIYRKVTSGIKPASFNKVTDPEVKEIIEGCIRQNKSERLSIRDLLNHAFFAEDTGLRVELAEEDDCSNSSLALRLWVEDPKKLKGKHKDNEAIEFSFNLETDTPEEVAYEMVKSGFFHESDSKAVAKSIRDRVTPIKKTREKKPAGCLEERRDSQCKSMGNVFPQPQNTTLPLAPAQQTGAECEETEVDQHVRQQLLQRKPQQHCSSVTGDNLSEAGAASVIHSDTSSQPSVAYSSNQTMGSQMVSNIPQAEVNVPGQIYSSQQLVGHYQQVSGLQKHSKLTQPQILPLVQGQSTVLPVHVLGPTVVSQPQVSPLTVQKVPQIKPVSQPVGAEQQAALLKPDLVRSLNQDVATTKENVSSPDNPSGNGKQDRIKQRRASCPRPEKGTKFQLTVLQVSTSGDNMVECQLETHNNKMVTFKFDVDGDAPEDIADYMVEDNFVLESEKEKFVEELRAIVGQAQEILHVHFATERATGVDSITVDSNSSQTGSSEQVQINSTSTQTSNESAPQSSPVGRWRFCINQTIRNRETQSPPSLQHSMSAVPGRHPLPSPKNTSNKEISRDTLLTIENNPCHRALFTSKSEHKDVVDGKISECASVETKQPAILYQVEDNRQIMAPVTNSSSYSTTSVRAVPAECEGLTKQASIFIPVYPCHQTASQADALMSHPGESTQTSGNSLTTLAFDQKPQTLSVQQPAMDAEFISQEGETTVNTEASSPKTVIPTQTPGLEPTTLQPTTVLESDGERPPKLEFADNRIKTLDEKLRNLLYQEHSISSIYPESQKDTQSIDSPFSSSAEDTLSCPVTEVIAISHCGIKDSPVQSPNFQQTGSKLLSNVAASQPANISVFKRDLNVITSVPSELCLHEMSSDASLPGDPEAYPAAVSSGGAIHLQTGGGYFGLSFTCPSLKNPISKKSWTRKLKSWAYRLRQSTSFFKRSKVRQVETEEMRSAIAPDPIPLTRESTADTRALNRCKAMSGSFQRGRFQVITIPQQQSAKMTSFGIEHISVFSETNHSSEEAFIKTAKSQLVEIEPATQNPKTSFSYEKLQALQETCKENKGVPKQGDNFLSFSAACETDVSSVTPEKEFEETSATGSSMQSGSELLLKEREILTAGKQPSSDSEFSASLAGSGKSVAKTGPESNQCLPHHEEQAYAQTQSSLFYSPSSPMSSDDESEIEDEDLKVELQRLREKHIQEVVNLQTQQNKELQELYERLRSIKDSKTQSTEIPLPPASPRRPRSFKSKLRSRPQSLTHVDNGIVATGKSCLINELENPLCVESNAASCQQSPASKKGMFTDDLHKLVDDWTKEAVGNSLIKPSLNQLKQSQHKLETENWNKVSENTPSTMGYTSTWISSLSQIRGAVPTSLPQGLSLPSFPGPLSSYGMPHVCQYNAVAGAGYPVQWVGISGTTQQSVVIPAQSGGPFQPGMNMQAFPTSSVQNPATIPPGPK
T2 sequence (Q9BWU1 whole entry): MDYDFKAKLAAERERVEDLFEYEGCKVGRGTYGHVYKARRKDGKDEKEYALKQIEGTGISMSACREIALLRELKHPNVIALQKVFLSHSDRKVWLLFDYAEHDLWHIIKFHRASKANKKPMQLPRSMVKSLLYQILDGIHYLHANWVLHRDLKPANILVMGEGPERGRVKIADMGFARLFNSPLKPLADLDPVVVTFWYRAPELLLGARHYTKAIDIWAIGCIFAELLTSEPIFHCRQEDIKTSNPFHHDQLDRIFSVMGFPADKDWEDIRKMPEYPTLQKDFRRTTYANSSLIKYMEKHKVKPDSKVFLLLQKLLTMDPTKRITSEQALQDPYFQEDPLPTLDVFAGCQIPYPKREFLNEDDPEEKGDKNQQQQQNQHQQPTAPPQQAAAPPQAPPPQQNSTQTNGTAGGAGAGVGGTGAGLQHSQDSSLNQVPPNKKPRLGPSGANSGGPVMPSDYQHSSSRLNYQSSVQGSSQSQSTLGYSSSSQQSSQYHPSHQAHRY

SMILES: NC(=O)c1cccc2cn(-c3ccc([C@@H]4CCCNC4)cc3)nc12 [Niraparib]
percent of control binding at 10 µM (ABL1-phosphorylated; [1]): 80%
percent of control binding at 10 µM (CDK11; [1]): 93%
percent of control binding at 10 µM (GRK7; [1]): 88%
percent of control binding at 10 µM (HIPK1; [1]): 0.95%
percent of control binding at 10 µM (MEK3; [1]): 80%
percent of control binding at 10 µM (PLK3; [1]): 85%
percent of control binding at 10 µM (TEC; [1]): 76%
percent of control binding at 10 µM (TIE2; [1]): 98%
percent of control binding at 10 µM (WEE2; [1]): 100%
percent of control binding at 10 µM (WNK3; [1]): 100%
percent of control binding at 10 µM (YES; [1]): 83%

percent of control binding at 10 µM (ABL1-phosphorylated; [2]): 98%
percent of control binding at 10 µM (CDK11; [2]): 85%
percent of control binding at 10 µM (GRK7; [2]): 85%
percent of control binding at 10 µM (HIPK1; [2]): 87%
percent of control binding at 10 µM (MEK3; [2]): 85%
percent of control binding at 10 µM (PLK3; [2]): 98%
percent of control binding at 10 µM (TEC; [2]): 100%
percent of control binding at 10 µM (TIE2; [2]): 100%
percent of control binding at 10 µM (WEE2; [2]): 100%
percent of control binding at 10 µM (WNK3; [2]): 88%
percent of control binding at 10 µM (YES; [2]): 93%
SMILES: O=C(c1cc(Cc2n[nH]c(=O)c3ccccc23)ccc1F)N1CCN(C(=O)C2CC2)CC1 [Olaparib]

percent of control binding at 10 µM (ABL1-phosphorylated; [3]): 98%
percent of control binding at 10 µM (CDK11; [3]): 94%
percent of control binding at 10 µM (GRK7; [3]): 48%
percent of control binding at 10 µM (HIPK1; [3]): 5.4%
percent of control binding at 10 µM (MEK3; [3]): 83%
percent of control binding at 10 µM (PLK3; [3]): 60%
percent of control binding at 10 µM (TEC; [3]): 100%
percent of control binding at 10 µM (TIE2; [3]): 92%
percent of control binding at 10 µM (WEE2; [3]): 100%
percent of control binding at 10 µM (WNK3; [3]): 86%
percent of control binding at 10 µM (YES; [3]): 99%
SMILES: CNCc1ccc(-c2[nH]c3cc(F)cc4c3c2CCNC4=O)cc1 [Rucaparib]

percent of control binding at 10 µM (ABL1-phosphorylated; [4]): 100%
percent of control binding at 10 µM (CDK11; [4]): 93%
percent of control binding at 10 µM (GRK7; [4]): 100%
percent of control binding at 10 µM (HIPK1; [4]): 100%
percent of control binding at 10 µM (MEK3; [4]): 65%
percent of control binding at 10 µM (PLK3; [4]): 90%
percent of control binding at 10 µM (TEC; [4]): 92%
percent of control binding at 10 µM (TIE2; [4]): 100%
percent of control binding at 10 µM (WEE2; [4]): 100%
percent of control binding at 10 µM (WNK3; [4]): 100%
percent of control binding at 10 µM (YES; [4]): 92%
SMILES: Cn1ncnc1[C@H]1c2n[nH]c(=O)c3cc(F)cc(c23)N[C@@H]1c1ccc(F)cc1 [Talazoparib]
